Assay: log P by HPLC on reversed-phase column (EEC directive 79/831 Annex V.A8)
Format: physicochemical
Conditions: not given
Experimental: a) The determination of the [M+H]^+ by LC-MS in the acidic range was effected at pH 2.7, with acetonitrile (containing 0.1% formic acid) and water as eluents; linear gradient from 10% acetonitrile to 95% acetonitrile, instrument: Agilent 1100 LC system, Agilent MSD system, HTS PAL.
The log P values reported in the tables and preparation examples above were determined in accordance with EEC directive 79/831 Annex V.A8 by HPLC (High Performance Liquid Chromatography) using a reversed-phase column (C18). Temperature 43° C.

Structure (SMILES) | chromatographic logP
CCNCC(=O)c1c([O-])n(Cc2cnc(Cl)s2)c2cccc[n+]12 [Example I-1-021, 1-[(2-Chloro-1,3-thiazol-5-yl)methyl]-3-(N-ethylglycyl)-1H-imidazo[1,2-a]pyridin-4-ium-2-olate] | 0.57

Same assay, conditions: HPLC on reversed-phase column

Structure (SMILES) | log p a)
CSc1ccc[n+]2c(C(=O)NC3CC3)c([O-])n(Cc3ccc(Cl)nc3)c12 [Example I-1-204] | 2.05
Cc1cnc(Cn2c([O-])c(C(=O)NCC(F)(F)F)[n+]3ccccc23)cn1 [Example I-1-242] | 1.57
Cc1ccc[n+]2c(C(=O)NC3CCCCC3)c([O-])n(Cc3ccc(Cl)nc3)c12 [Example I-1-253] | 2.72
Cc1ccc[n+]2c(C(=O)NCC3CCCCC3)c([O-])n(Cc3ccc(Cl)nc3)c12 [Example I-1-255] | 3.21
Cc1ccc[n+]2c(C(=O)NCC3CCCC3)c([O-])n(Cc3ccc(Cl)nc3)c12 [Example I-1-256] | 2.8
Cc1ccc[n+]2c(C(=O)NC3(C#N)CCCCC3)c([O-])n(Cc3ccc(Cl)nc3)c12 [Example I-1-263] | 2.62
Cc1ccc[n+]2c(C(=O)Nc3ccccn3)c([O-])n(Cc3ccc(Cl)nc3)c12 [Example I-1-264] | 1.68
N#CC1(NC(=O)c2c([O-])n(Cc3cnc(Cl)s3)c3cccc[n+]23)CC1 [Example I-1-270] | 1.58
O=C(c1c([O-])n(Cc2cnc(Cl)s2)c2cccc[n+]12)N1CCCC1 [Example I-1-273] | 1.52
CNC(=O)c1c([O-])n(Cc2cnc(Cl)cn2)c2cccc[n+]12 [Example I-1-280] | 1.15
COC(=O)c1c([O-])n(Cc2cnc(Cl)cn2)c2c(C)ccc[n+]12 [Example I-1-281] | 1.47
O=C(Nc1cc(Cl)cc(Cl)c1)c1c([O-])n(Cc2ccc(Cl)nc2)c2cccc[n+]12 [Example I-1-295] | 4.1
O=C(Nc1cccc(OC(F)(F)F)c1)c1c([O-])n(Cc2ccc(Cl)nc2)c2cccc[n+]12 [Example I-1-298] | 3.55
Cc1cccc(NC(=O)c2c([O-])n(Cc3ccc(Cl)nc3)c3cccc[n+]23)c1 [Example I-1-300] | 1.41

Same assay, conditions: HPLC on reversed-phase column (footnote a)

Structure (SMILES) | log p
O=C(COc1ccccc1)c1c([O-])n(Cc2ccc(Cl)nc2)c2cccc[n+]12 [Example I-1-007] | 2.2
CCNCC(=O)c1c([O-])n(Cc2ccc(Cl)nc2)c2cccc[n+]12 [Example I-1-024] | 0.42
COC(=O)COCC(=O)c1c([O-])n(Cc2ccc(Cl)nc2)c2cccc[n+]12 [Example I-1-030] | 1.31
CNC(=O)c1ccn(CC(=O)c2c([O-])n(Cc3cnc(Cl)s3)c3cccc[n+]23)n1 [Example I-1-048] | 1.27
O=C(Cn1ccnc1)c1c([O-])n(Cc2cnc(Cl)s2)c2cccc[n+]12 [Example I-1-050] | 0.46
CNCC(=O)c1c([O-])n(Cc2cnc(Cl)s2)c2cccc[n+]12 [Example I-1-058] | 0.31
O=C(CCl)c1c([O-])n(Cc2ccc(Cl)nc2)c2cc(C(F)(F)F)cc[n+]12 [Example I-1-063] | 2.52
N#Cc1cc[n+]2c(C(=O)CCl)c([O-])n(Cc3ccc(Cl)nc3)c2c1 [Example I-1-067] | 1.83
COCC(=O)c1c([O-])n(Cc2ccc(Cl)nc2)c2cc(C(F)(F)F)cc[n+]12 [Example I-1-069] | 1.99
O=C(COc1cccc(Cl)c1)c1c([O-])n(Cc2cnc(Cl)s2)c2cccc[n+]12 [Example I-1-073] | 2.87
O=C(COc1ccc(Cl)cc1)c1c([O-])n(Cc2cnc(Cl)s2)c2cccc[n+]12 [Example I-1-074] | 2.84
O=C(CCl)c1c([O-])n(Cc2ccc(Cl)nc2)c2c(Cl)ccc[n+]12 [Example I-1-090] | 1.99
Cc1ccc[n+]2c(C(=O)Cn3cc(Cl)cn3)c([O-])n(Cc3cnc(Cl)s3)c12 [Example I-1-095] | 2.27
O=C(CCl)c1c([O-])n(Cc2ccc(Cl)nc2)c2ccc(F)c[n+]12 [Example I-1-099] | 1.78
O=C(CCl)c1c([O-])n(Cc2ccc(Cl)nc2)c2c(F)ccc[n+]12 [Example I-1-100] | 1.81
O=C(Cn1cccn1)c1c([O-])n(Cc2ccc(Cl)nc2)c2cc(C(F)(F)F)cc[n+]12 [Example I-1-102] | 2.08
Cc1ccc2n(Cc3ccc(Cl)nc3)c([O-])c(C(=O)Cn3cccn3)[n+]2c1 [Example I-1-104] | 1.63
O=C(Cn1cccn1)c1c([O-])n(Cc2ccc(Cl)nc2)c2c(F)ccc[n+]12 [Example I-1-105] | 1.55
O=C(CCl)c1c([O-])n(Cc2cnc(Cl)s2)c2cc(Cl)cc[n+]12 [Example I-1-120] | 2.17
COCC(=O)c1c([O-])n(Cc2cnc(Cl)s2)c2cc(Cl)cc[n+]12 [Example I-1-123] | 1.90

Structure (SMILES) | log p
O=C(NC1CC1)c1c([O-])n(Cc2ccc(Cl)nc2)c2c(F)ccc[n+]12 [Example I-1-127] | 1.82
COC(=O)c1c([O-])n(Cc2ccc(Cl)nc2)c2c(Cl)ccc[n+]12 [Example I-1-130] | 1.56
COC(=O)c1c([O-])n(Cc2ccc(Cl)nc2)c2cc(C(F)(F)F)cc[n+]12 [Example I-1-132] | 1.93
CCNC(=O)c1c([O-])n(Cc2cnc(Cl)s2)c2cccc[n+]12 [Example I-1-134] | 1.58
O=C(NCCc1ccc(Cl)cc1)c1c([O-])n(Cc2cnc(Cl)s2)c2cccc[n+]12 [Example I-1-139] | 3
O=C(NC1CC1)c1c([O-])n(Cc2cnc(Cl)s2)c2c(Cl)ccc[n+]12 [Example I-1-140] | 2.01
O=C(NC1CC1)c1c([O-])n(Cc2cnc(Cl)s2)c2cc(C(F)(F)F)cc[n+]12 [Example I-1-141] | 2.38
O=C(NCc1ccc(Cl)cc1)c1c([O-])n(Cc2cnc(Cl)s2)c2cccc[n+]12 [Example I-1-149] | 2.86
O=C(Nc1ccc(Cl)cc1)c1c([O-])n(Cc2cnc(Cl)s2)c2cccc[n+]12 [Example I-1-150] | 3.39
O=C(Nc1ccc(Cl)nc1)c1c([O-])n(Cc2cnc(Cl)s2)c2cccc[n+]12 [Example I-1-153] | 3.06
COC(=O)c1c([O-])n(Cc2ccc(Cl)nc2)c2c(F)cc(F)c[n+]12 [Example I-1-156] | 1.56
O=C(CCl)c1c([O-])n(Cc2cncc(Cl)c2)c2cccc[n+]12 [Example I-1-162] | 1.53
O=C(CCl)c1c([O-])n(Cc2ccc(C(F)(F)F)nc2)c2cccc[n+]12 [Example I-1-163] | 1.9
COC(=O)c1c([O-])n(Cc2ccc(Cl)nc2)c2c(C)ccc[n+]12 [Example I-1-183] | 1.66
O=C(NC1CC1)c1c([O-])n(Cc2cnc(Cl)s2)c2cc(Cl)cc[n+]12 [Example I-1-184] | 2.14
Cc1ccc[n+]2c(C(=O)Nc3ccc(Cl)cc3)c([O-])n(Cc3ccc(Cl)nc3)c12 [Example I-1-187] | 3.41
COC(=O)c1c([O-])n(Cc2ccc(Cl)nc2)c2c(OC(F)(F)F)ccc[n+]12 [Example I-1-189] | 1.84
COC(=O)c1c([O-])n(Cc2ccc(Cl)nc2)c2c(SC)ccc[n+]12 [Example I-1-194] | 1.64
O=C(NC1CC1)c1c([O-])n(Cc2ccc(Cl)nc2)c2c(F)cc(F)c[n+]12 [Example I-1-197] | 1.99

Same assay, conditions: pH 2.7

Structure (SMILES) | chromatographic logP
CCNCC(=O)c1c([O-])n(Cc2cnc(Cl)s2)c2cccc[n+]12 [Example I-1-021, 1-[(2-Chloro-1,3-thiazol-5-yl)methyl]-3-(N-ethylglycyl)-1H-imidazo[1,2-a]pyridin-4-ium-2-olate] | 0.57
